The source of these data is US11439707B2, “Hypocrellin derivative substituted both in a peri-position and in 2-position by amino, preparation method, and application thereof” (priority 2017, dated 2022).

Entries after “also recorded” stand apart in the source; their conditions may differ.

The nature of series [1]: reactive oxygen measurement with singlet oxygen and superoxide radical scavengers. The class given is physicochemical. Particulars: FIG. 6(a), 6(b). The source says: FIGS. 7(a)-7(d) show efficiency curves of measuring singlet oxygen of HB-1c and HC-1c. From the comparison with a reference rose bengal RB, it can be seen that the singlet oxygen efficiencies of HB-1c and HC-1c are respectively 0.40 and 0.38.

Series [2] is described as follows: singlet oxygen efficiency test, reference rose bengal. The class given is physicochemical. Particulars: for singlet oxygen efficiencies: comparison with reference rose bengal RB, FIG. 7.
The nature of series [3]: absorption spectrum (maximum absorption wavelength, molar extinction coefficient). The class given is physicochemical.
Series [4] deals with Hela cells. Description: photo-cytotoxicity experiment (MTT, 635 nm laser). Type of series: cell-based. Particulars: 635 nm light. Here is the method: Photo-cytotoxicity experiment on cell: cultured Hela cells were digested and pipetted with 0.25% trypsin and to prepare a single-cell suspension, the number of cells was adjusted to about 2×10^4 per milliliter, and 200 uL of the suspension was seeded in a well of a 96-well culture plate, which is placed in a 37° C. incubator containing 5% CO2 for cultivation. After the cells adhere to the wall, a supernatant culture solution was discarded, and photosensitizers of different concentrations, that is, the hematoporphyrin derivative HpD, the hypocrellin B HB, or HB-1c-PEG6 synthesized in example 3, were added in a strictly lucifugous condition in accordance with experimental designs, and the culture plate was placed in the 37° C. incubator containing 5% CO2 for further cultivation and incubation for 1 hour. Then, a semiconductor laser with a wavelength of 635 nm was used for irradiation, a power density was adjusted to 20 mW/cm^2, light beams were evenly and vertically applied onto the 96-well culture plate, and an irradiation time was 1000 S. In addition, each 96-well culture plate is provided with a blank group, and 6 holes were provided for in each condition. After irradiation, the culture plate was placed in the 37° C. incubator containing 5% CO2 for further cultivation and incubation for 24 hours, and then a cellular survival rate was measured. The cellular survival rate was measured by means of the MTT method. 20 uL of MTT was added to each well, wherein the MTT is MTT prepared with PBS and having a concentration of 5 mg/ml. The culture plate was placed in the 37° C. incubator containing 5% CO2 for further cultivation for 4 hours, after which the cultivation was terminated. A supernatant in the well was extracted and discarded carefully. Then, 150 uL of dimethyl sulfoxide (DMSO) was added to each well, and the culture plate was shaken by using a micro shaker for 10 minutes to fully dissolve a purple crystal substance. A wavelength of 570 nm was selected to measure an optical density value (i.e., OD value) of each well on a microplate reader, and the cellular survival rate was calculated in accordance with the following formula: cellular survival rate=OD value of an experimental group/OD value of a blank group×100%.

Series [5] deals with Hela cells. Description: dark cytotoxicity experiment (MTT). Particulars: dark. As to the method: Dark cytotoxicity experiment: cultured Hela cells were digested with 0.25% trypsin and pipetted to prepare a single-cell suspension, the number of cells was adjusted to about 2×10^4 per milliliter, and 200 uL of the suspension was seeded in a well of a 96-well culture plate, which is placed in a 37° C. incubator containing 5% CO2 for cultivation. […] A cellular survival rate was measured by means of the MTT method. 20 uL of MTT was added to each well, wherein the MTT is MTT prepared with PBS and having a concentration of 5 mg/ml. The culture plate was placed in the 37° C. incubator containing 5% CO2 for further cultivation for 4 hours, after which the cultivation was terminated. A supernatant in the well was extracted and discarded carefully. Then, 150 uL of dimethyl sulfoxide was added to each well, and the culture plate was shaken by using a micro shaker for 10 minutes to fully dissolve a purple crystal substance. A wavelength of 570 nm was selected to measure an optical density value (i.e., OD value) of each well on a microplate reader, and the cellular survival rate was calculated in accordance with the following formula: cellular survival rate=OD value of an experimental group/OD value of a blank group×100%.

Series [6] is described as follows: pH stability of absorption spectrum. The class given is physicochemical. Particulars: pH range of 6.2-8.0, FIG. 8. The source says:
Therefore, the hypocrellin derivative prepared in the present invention has a better pH stability than the commercial hematoporphyrin HpD in the pH range of 6.2-8.0.

Another series relates to singlet oxygen in a cell. Nature of the series: detection of singlet oxygen in a cell with fluorescence probe DCFH-DA. Type of series: cell-based. Particulars: co-incubation with DCFH-DA, irradiation time to 60 s, FIG. 11. From the text:
DCFH-DA is used to detect singlet oxygen in a cell.

Series [7] is described as follows: water solubility in normal saline. Type of series: physicochemical. Particulars: per milliliter of normal saline. Here is the method: Most of photosensitizer molecules disclosed in this patent contain a large number of hydrophilic groups, such as a polyethylene glycol chain, a quaternary ammonium salt, a carboxyl group, and a sulfonic acid group, etc., making the photosensitizer molecules have very high water solubility in a physiological condition; and experiments indicate that each milliliter of normal saline or glucose injection can dissolve more than 5 mg of such the photosensitizer molecules, presenting excellent water solubility. Therefore, the photosensitive drug can be well transported in blood vessels during intravenous injection, without causing a vascular blockage. HB-1c-C2-N+ prepared in example 4 contains two quaternary ammonium salts, and each milliliter of normal saline can dissolve more than 20 mg of photosensitizer molecules; HC-1c-PEG6 prepared in example 6 contains two 6-PEG chains, and each milliliter of normal saline can dissolve more than 20 mg of photosensitizer molecules; HB-8c prepared in example 19 contains two carboxyl groups, and each milliliter of normal saline can dissolve more than 10 mg of photosensitizer molecules; HB-13c prepared in example 35 contains two carboxyl groups, and each milliliter of normal saline can dissolve more than 10 mg of photosensitizer molecules; and HB-13c-PEG8 prepared in example 37 contains two 8-PEG chains, and each milliliter of normal saline can dissolve more than 20 mg of photosensitizer molecules. These photosensitizer molecules all present excellent water solubility.

For `COc1c2c3c4c(c(NCCOCCO)c(=O)c5c(NCCOCCO)cc(OC)c(c6c(OC)cc(O)c(c1=O)c63)c54)C=C(C)C2C(C)=O` (stereo not shown) [HB-1c], in series [1], the “photosensitive reactive species produced” value is on record as “primarily producing singlet oxygen”. This molecule returned a singlet oxygen efficiencies in series [2] of 0.40.
In turn, `COCCOCCOCCOCCOCCOCCOC(=O)CCCNc1c2c3c4c(c(OC)c(=O)c5c(O)cc(OC)c(c6c(OC)cc(NCCCC(=O)OCCOCCOCCOCCOCCOCCOC)c(c1=O)c63)c54)CC(C)=C2` [HC-8c-PEG6] gave a singlet oxygen yield in series [2] of 36%. Besides, in series [3], the maximum absorption wavelength is listed as 632 nm and the molar extinction coefficient is 31,500 M^−1cm^−1. Further, the Hela cells killed entry in the series with Hela cells [4] (240 nM, FIG. 15(b)) was “more than 90%”. Moreover, the “cytotoxicity when not exposed to light” value with Hela cells [5] is listed as “almost no cytotoxicity”.
In series [2], `COc1c2c3c4c(c(NCCOCCO)c(=O)c5c(NCCOCCO)cc(OC)c(c6c(OC)cc(O)c(c1=O)c63)c54)C=C(C)C2` [HC-1c] showed a singlet oxygen yield of 38% and a singlet oxygen efficiencies of 0.38. In series [3], the molar extinction coefficient was 30,000 M^−1cm^−1. Besides, the “pH stability, change in absorption spectrum” value in series [6] is listed as “no obvious change”.
With `COCCOCCOCCOCCOCCOCCOCCC(=O)OCCOCCNc1c2c3c4c(c(OC)c(=O)c5c(O)cc(OC)c(c6c(OC)cc(NCCOCCOC(=O)CCOCCOCCOCCOCCOCCOCCOC)c(c1=O)c63)c54)CC(C)=C2` [HC-1c-PEG6], in series [2], the singlet oxygen yield was determined as 34%. For the same molecule, the “singlet oxygen in the cell (DCFH-DA green fluorescence)” value with singlet oxygen in a cell is on record as “green fluorescence intensity is gradually increased”. Further, in series [3], the maximum absorption wavelength amounted to 628 nm and the molar extinction coefficient is recorded as 33,500 M^−1cm^−1. Also, the Hela cells killed result in the series with Hela cells [4] (140 nM, FIG. 13(b)) is given as “more than 90%”. Besides, in series [6], the “pH stability, change in absorption spectrum” value was “good pH stability; also recorded: no obvious change”. Further, the “amount dissolved by each milliliter of normal saline” value in series [7] is “more than 20 mg”. Further, the “cytotoxicity when not exposed to light” value in the series with Hela cells [5] is given as “almost no cytotoxicity”.
